This is an account of results in publication PMC9779571, “Guanidine Derivatives Containing the Chalcone Skeleton Are Potent Antiproliferative Compounds against Human Leukemia Cells” (International Journal of Molecular Sciences, 2022).

The test system of this test is U-937 cells. Briefly: MTT cytotoxicity assay, U-937. It is filed as cell-based. As to conditions: Homo sapiens, U-937, 72 h, means ± SEM. An excerpt: U-937, HL-60, MOLT-3, NALM-6, and SK-MEL-1 cells were from DSMZ (German Collection of Microorganisms and Cell Cultures, Braunschweig, Germany). U-937/Bcl-2 cells were kindly provided by Dr. Jacqueline Bréard (INSERM U749, Faculté de Pharmacie Paris-Sud, Châtenay-Malabry, France). The U-937 is a pro-monocytic, human promyelocytic leukemia cell line that was isolated from a histiocytic lymphoma. HL-60 is a human acute myeloid leukemia cell line. MOLT-3 is a human acute lymphoblastic leukemia cell line. NALM-6 is a human B cell precursor leukemia. SK-MEL-1 is a human melanoma cell line growing singly or in clumps (occasional giant, polynucleated cell) in suspension. Cells were cultured in RPMI 1640 medium containing 10% (v/v) heat-inactivated fetal bovine serum, 100 μg/mL streptomycin, and 100 U/mL penicillin, incubated at 37 °C in a humidified atmosphere containing 5% CO2 as described. The doubling times of the cell lines were 24 h in HL-60, 30 h in U-937, U-937/Bcl-2, 40 h in MOLT-3 and NALM-6, and several days in SK-MEL-1 cells. Human peripheral blood mononuclear cells (PBMC) were isolated from heparin-anticoagulated blood of healthy volunteers by centrifugation with Ficoll-Paque Plus (GE Healthcare Bio-Sciences AB, Uppsala, Sweden). PBMC were also stimulated with phytohemagglutinin (2 µg/mL) for 48 h before the experimental treatment. The trypan blue exclusion method was used for counting the cells by a hemocytometer with 95% viability in all the experiments. Compounds were dissolved in dimethyl sulfoxide (DMSO) and kept under dark conditions at 25 °C. […] The cytotoxicity of the synthetic compounds was evaluated by colorimetric 3-(4,5-dimethyl-2-thiazolyl-)-2,5-diphenyl-2H-tetrazolium bromide (MTT) assay as previously described. Briefly, cells (5000 per well) were incubated with increasing concentrations of compounds for 72 h into a 96-well plate. Then, the supernatants were removed and 0.5 mg/mL MTT was added and incubated for 4 h at 37 °C. Sodium dodecyl sulfate (10% w/v) in 0.05 M HCl was added to solubilize the reaction products and the absorbance was measured at 570 nm with a reference wavelength of […] using an ELISA reader (Bio-Rad, Hercules, CA, USA). The IC50 values (concentrations inducing a 50% inhibition of cell viability) were determined graphically for each experiment by a nonlinear regression using the curve fitting routine implemented within the software Prism 5.0 (GraphPad, La Jolla, CA, USA).
(Tetrazolium assays rely on reduction of a dye to a coloured formazan, in cell work by metabolically active cells.)

Usually IC50 stands for the point on the concentration scale where inhibition reaches its midpoint. High values mean a need for much substance, low ones inhibition by little substance.

`Cc1ccc(S(=O)(=O)NC(=Nc2ccc(/C=C/C(=O)c3c(O)cccc3OCc3ccccc3)cc2)N2CCN(C)CC2)cc1` [Compound 6f] came in with an IC50 of 1600 ± 600 nM.
